This assay has as its target T1, human ABCC4 (ABCC4/MRP4) (Homo sapiens, UniProt O15439).
T1 sequence (O15439 1-1325): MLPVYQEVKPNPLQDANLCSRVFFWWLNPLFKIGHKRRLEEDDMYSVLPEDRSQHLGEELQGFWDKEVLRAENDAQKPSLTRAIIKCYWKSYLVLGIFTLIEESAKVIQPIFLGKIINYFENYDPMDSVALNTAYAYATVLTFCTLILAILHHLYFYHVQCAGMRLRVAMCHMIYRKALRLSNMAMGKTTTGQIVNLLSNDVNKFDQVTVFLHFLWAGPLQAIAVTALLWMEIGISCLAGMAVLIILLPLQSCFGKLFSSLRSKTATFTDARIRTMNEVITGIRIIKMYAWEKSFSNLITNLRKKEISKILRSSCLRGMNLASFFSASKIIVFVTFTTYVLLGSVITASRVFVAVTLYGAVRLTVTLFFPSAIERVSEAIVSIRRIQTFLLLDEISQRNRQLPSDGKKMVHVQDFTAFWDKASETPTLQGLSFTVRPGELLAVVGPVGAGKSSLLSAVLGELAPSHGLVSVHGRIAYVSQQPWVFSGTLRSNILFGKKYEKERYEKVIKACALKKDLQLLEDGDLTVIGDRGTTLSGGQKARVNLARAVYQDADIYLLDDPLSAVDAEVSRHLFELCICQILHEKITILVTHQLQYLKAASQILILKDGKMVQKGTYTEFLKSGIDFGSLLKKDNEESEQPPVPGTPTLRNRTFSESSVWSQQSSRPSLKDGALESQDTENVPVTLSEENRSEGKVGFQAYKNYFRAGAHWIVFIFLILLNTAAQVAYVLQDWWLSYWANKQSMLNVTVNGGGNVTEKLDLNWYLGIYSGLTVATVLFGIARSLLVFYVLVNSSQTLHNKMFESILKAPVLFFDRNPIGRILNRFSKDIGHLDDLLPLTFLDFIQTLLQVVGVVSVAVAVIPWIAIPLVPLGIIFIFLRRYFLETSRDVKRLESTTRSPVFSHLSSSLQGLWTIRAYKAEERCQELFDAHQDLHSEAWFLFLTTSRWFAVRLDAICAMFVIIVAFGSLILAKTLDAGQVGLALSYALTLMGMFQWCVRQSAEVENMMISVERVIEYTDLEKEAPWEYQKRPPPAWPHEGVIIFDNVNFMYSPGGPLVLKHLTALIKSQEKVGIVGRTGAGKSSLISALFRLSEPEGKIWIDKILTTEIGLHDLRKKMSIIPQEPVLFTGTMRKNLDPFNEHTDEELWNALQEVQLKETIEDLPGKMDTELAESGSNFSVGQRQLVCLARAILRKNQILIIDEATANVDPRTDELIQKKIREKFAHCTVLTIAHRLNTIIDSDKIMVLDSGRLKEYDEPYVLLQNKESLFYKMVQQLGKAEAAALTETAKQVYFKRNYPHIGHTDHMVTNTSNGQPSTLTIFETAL
The assay is described as follows: inhibition of basal ATPase activity, ABCC4 in lipid nanodiscs, logistic fit. The assay is classed as biochemical.

As usually defined, the IC50 is the concentration that gives 50% inhibition.

`OCCN(CCO)c1nc(N2CCCCC2)c2nc(N(CCO)CCO)nc(N3CCCCC3)c2n1` [dipyridamole]: the IC50 was ~2100 nM.

Source of the values: paper doi:10.1101/2022.12.25.521909v1 (biorxiv, 2022).
